What was measured:
[1] = system: Cyperus difformis L. (small-flower flatsedge); assay: Postemergence foliar-applied herbicidal activity in direct seeded rice (Example 16); type: in vivo; conditions: post-emergence, 504 h, rice cropping systems, foliar-applied, 8.75 g ae/ha, 21 DAA, may represent multiple trials, read-out: Visual Injury (%) CYPDI
Excerpt: (§1) Seeds or nutlets of the desired test plant species were planted in a soil matrix prepared by mixing a loam soil (43 percent silt, 19 percent clay, and 38 percent sand, with a pH of about 8.1 and an organic matter content of about 1.5 percent) and river sand in an 80 to 20 ratio. The soil matrix was contained in plastic pots with a surface area of 139.7 cm^2. When required to ensure good germination and healthy plants, a fungicide treatment and/or other chemical or physical treatment was applied. The plants were grown for 10-17 d in a greenhouse with an approximate 14-h photoperiod which was maintained at about 29° C. during the day and 26° C. during the night. Nutrients and water were added on a regular basis and supplemental lighting was provided with overhead metal halide 1000-Watt lamps as necessary. The plants were employed for testing when they reached the second or third true leaf stage.
(§2) Treatments consisted of esters of compounds 1-4, 6-8, 10, 11, 13-16, 20-31, 35, 38, 41 and 42 and A-E. Compound A is methyl 4-amino-3-chloro-6-(4-chloro-3-ethoxy-2-fluorophenyl)-5-fluoropicolinate; compound B is methyl 4-amino-3-chloro-6-(4-cyclopropylphenyl)-5-fluoropicolinate; compound C is methyl 4-amino-3-chloro-6-(2,4-dichloro-3-methoxyphenyl)picolinate; compound D is methyl 6-amino-2-(4-chloro-2-fluoro-3-methoxyphenyl)-5-vinylpyrimidine-4-carboxylate; and compound E is methyl 4-amino-3-chloro-6-(4-chloro-2-fluoro-3-methoxyphenyl)-5-fluoropicolinate. Weighed amounts of technical grade compounds were placed in 25 mL glass vials and dissolved in a volume of 97:3 v/v acetone-DMSO to obtain 12× stock solutions. […] The concentrated stock solutions were added to the spray solutions so that the final acetone and DMSO concentrations were 16.2% and 0.5%, respectively. Spray solutions were diluted to the appropriate final concentrations with the addition of 10 mL of an aqueous mixture of 1.5% (v/v) Agri-dex crop oil concentrate. Generally, multiple concentrations of spray solutions were formulated and tested utilizing the same stock solution. The final spray solutions contained 1.25% (v/v) Agri-dex crop oil concentrate. Compound requirements are based upon a 12 mL application volume at a rate of 187 L/ha. Spray solutions were applied to the plant material with an overhead Mandel track sprayer equipped with 8002E nozzles calibrated to deliver 187 L/ha over an application area of 0.503 square meters (m^2) at a spray height of 18 inches (43 cm) above average plant canopy height. Control plants were sprayed in the same manner with the solvent blank.
(§3) The treated plants and control plants were placed in a greenhouse as described above and watered by sub-irrigation to prevent wash-off of the test compounds. After 3 weeks, the condition of the test plants, compared with that of the untreated plants, was determined visually and scored on a scale of 0 to 100 percent where 0 corresponds to no injury and 100 corresponds to complete kill.
(§4) By applying the well-accepted probit analysis as described by J. Berkson in Journal of the American Statistical […], 48, 565 (1953) and by D. Finney in “Probit Analysis” Cambridge University Press (1952), the data gathered can be used to calculate GR50 and GR80 values, which are defined as growth reduction factors that correspond to the effective dose of herbicide required to kill or control 50 percent or 80 percent, respectively, of a target plant.

[2] = system: Scirpus juncoides ROXB. (Japanese bulrush); assay: as above; type: in vivo; conditions: Schoenoplectiella juncoides, post-emergence, 504 h; rice cropping systems, foliar-applied, 8.75 g ae/ha, 21 DAA; may represent multiple trials; read-out: Visual Injury (%) SCPJU
Excerpt: as §1, §2, §3, §4

[3] = system: Echinochloa crus-galli (L.) P.BEAUV. (barnyardgrass); assay: In-water applied herbicidal activity in transplanted paddy rice (Example 17); type: in vivo; conditions: Echinochloa crus-galli, 504 h, rice cropping systems, in-water applied (paddy), 21 DAA, may represent multiple trials, read-out: Visual Injury (%) ECHCG; for pest or weed control at 17.5 g/ha: 17.5 g ae/ha
Experimental: (§5) Weed seeds or nutlets of the desired test plant species were planted in puddled soil (mud) prepared by mixing a non-sterilized mineral soil (28 percent silt, 18 percent clay, and 54 percent sand, with a pH of about 7.3 to 7.8 and an organic matter content of about 1.0 percent) and water at a ratio of 100 kilograms (kg) of soil to 19 liters (L) of water. The prepared mud was dispensed in 250 mL aliquots into 480 mL non-perforated plastic pots with a surface area of 91.6 cm^2 leaving a headspace of 3 cm in each pot. Rice seeds were planted in Sun Gro MetroMix 306 planting mixture, which typically has a pH of 6.0 to 6.8 and an organic matter content of about 30 percent, in plastic plug trays. Seedlings at the second or third leaf stage of growth were transplanted into 650 mL of mud contained in 960 mL non-perforated plastic pots with a surface area of 91.6 cm^2 four days prior to herbicide application. The paddy was created by filling the 3 cm headspace of the pots with water. When required to ensure good germination and healthy plants, a fungicide treatment and/or other chemical or physical treatment was applied. The plants were grown for 4-14 d in a greenhouse with an approximate 14-h photoperiod which was maintained at about 29° C. during the day and 26° C. during the night. Nutrients were added as Osmocote (17:6:10, Nitrogen:Phosphorus:Potassium (N:P:K)+minor nutrients) at 2 grams (g) per cup. Water was added on a regular basis to maintain the paddy flood, and supplemental lighting was provided with overhead metal halide 1000-Watt lamps as necessary. The plants were employed for testing when they reached the second or third true leaf stage.
(§6) Treatments consisted of esters of compounds 1-4, 6-33, 35-39, 41 and 42 and A-G. Compound A is methyl 4-amino-3-chloro-6-(4-chloro-3-ethoxy-2-fluorophenyl)-5-fluoropicolinate; compound B is methyl 4-amino-3-chloro-6-(4-cyclopropylphenyl)-5-fluoropicolinate; compound C is methyl 4-amino-3-chloro-6-(2,4-dichloro-3-methoxyphenyl)picolinate; compound D is methyl 6-amino-2-(4-chloro-2-fluoro-3-methoxyphenyl)-5-vinylpyrimidine-4-carboxylate; compound E is methyl 4-amino-3-chloro-6-(4-chloro-2-fluoro-3-methoxyphenyl)-5-fluoropicolinate; compound F is methyl 6-amino-2-(4-chloro-2-fluoro-3-methoxyphenyl)-5-methoxypyrimidine-4-carboxylate; and compound G is methyl 4-amino-3-chloro-6-(4-chloro-2-fluoro-3-methoxyphenyl)picolinate. Weighed amounts of technical grade compounds were placed in individual 120 mL glass vials and were dissolved in 20 mL of acetone to obtain concentrated stock solutions. […] The concentrated stock solutions obtained were diluted with 20 mL of an aqueous mixture containing 2.5% Agri-dex crop oil concentrate (v/v). The final application solutions contained 1.25% (v/v) Agri-dex crop oil concentrate. Generally, multiple concentrations were tested utilizing the same stock solution. Applications were made by injecting an appropriate amount of the application solution into the aqueous layer of the paddy. Control plants were treated in the same manner with the solvent blank.
as §3, with “water was added as needed” for “watered by sub-irrigation”, “maintain a paddy flood.” for “prevent wash-off of the test compounds.”, “weeks” for “weeks,”
as §4

[4] = system: Scirpus juncoides ROXB. (Japanese bulrush); assay: as above; type: in vivo; conditions: Schoenoplectiella juncoides, 504 h; rice cropping systems, in-water applied (paddy), 17.5 g ae/ha, 21 DAA; may represent multiple trials; read-out: Visual Injury (%) SCPJU
Experimental: as §5, §6
as §3, with “water was added as needed” for “watered by sub-irrigation”, “maintain a paddy flood.” for “prevent wash-off of the test compounds.”, “weeks” for “weeks,”
as §4

[5] = system: Echinochloa colonum (L.) LINK (junglerice); assay: Postemergence foliar-applied herbicidal activity in direct seeded rice (Example 16); type: in vivo; conditions: Echinochloa colona, post-emergence, 504 h, rice cropping systems, 8.75 g ae/ha, 21 DAA, may represent multiple trials, read-out: Visual Injury (%) ECHCO
Excerpt: as §1, §2, §3, §4

[6] = system: Echinochloa crus-galli (L.) P.BEAUV. (barnyardgrass); assay: as above; type: in vivo; conditions: rice cropping systems, 8.75 g ae/ha, 21 DAA, may represent multiple trials
Excerpt: as §1, §2, §3, §4

Row | melting point [°C] | SMILES | pest or weed control at 8.75 g/ha [1] [%] | pest or weed control at 8.75 g/ha [2] [%] | pest or weed control at 17.5 g/ha [3] [%] | pest or weed control at 17.5 g/ha [4] [%] | pest or weed control at 8.75 g/ha [5] [%] | Visual Injury (%) ECHCG [6] [%] | pest or weed control at 35 g/ha ([3]; 35 g ae/ha) [%]
1 | 164 to 165 | COc1cccc(COC(=O)c2nc(-c3ccc(Cl)c(OC)c3F)c(F)c(N)c2Cl)c1 [Compound 13] | 95 | 80 | 98 | 98 |  |  | 
2 | 169 | COc1c(Cl)ccc(-c2nc(C(=O)OCc3ccccc3F)c(Cl)c(N)c2F)c1F [Compound 25] | 100 | 100 | 10 | 90 |  |  | 
3 |  | C=Cc1c(N)nc(-c2ccc(Cl)c(OC)c2F)nc1C(=O)OC [D, methyl 6-amino-2-(4-chloro-2-fluoro-3-methoxyphenyl)-5-vinylpyrimidine-4-carboxylate, reference compound] |  |  |  |  | 79 | 87 | 54
4 | 84 to 85 | COc1c(Cl)ccc(-c2nc(C(=O)OCCc3ccccc3)c(Cl)c(N)c2F)c1F [Compound 15] | 100 | 90 | 30 | 70 |  |  | 
5 | 135 | COc1c(Cl)ccc(-c2nc(C(=O)OCc3ccccc3C)c(Cl)c(N)c2F)c1F [Compound 8] | 99 | 99 | 100 | 100 |  |  | 
6 | 118 to 119 | COc1c(Cl)ccc(-c2nc(C(=O)OCc3ccc(C(F)(F)F)cc3)c(Cl)c(N)c2F)c1F [Compound 6] | 100 | 100 | 60 | 95 |  |  | 
7 | 167 to 168 | COc1c(Cl)ccc(-c2nc(C(=O)OCc3ccc(Cl)cc3C)c(Cl)c(N)c2F)c1F [Compound 30] | 99 | 0 | 50 | 85 |  |  | 
8 | 75 to 76 | COc1c(Cl)ccc(-c2nc(C(=O)OCc3ccc(C(C)C)cc3)c(Cl)c(N)c2F)c1F [Compound 27] | 100 | 100 | 10 | 80 |  |  | 
9 | 133 to 134 | COc1c(Cl)ccc(-c2nc(C(=O)OCc3ccccc3C(F)(F)F)c(Cl)c(N)c2F)c1F [Compound 26] | 100 | 100 | 20 | 100 |  |  | 
10 | 182 | COC(=O)c1ccc(COC(=O)c2nc(-c3ccc(Cl)c(OC)c3F)c(F)c(N)c2Cl)cc1 [Compound 16] | 94 | 85 | 90 | 99 |  |  | 
11 | 207 to 208 | COc1c(Cl)ccc(-c2nc(C(=O)OCc3ccc([N+](=O)[O-])cc3)c(Cl)c(N)c2F)c1F [Compound 21] | 100 | 100 | 10 | 80 |  |  | 
12 | 150 | COc1c(Cl)ccc(-c2nc(C(=O)OCc3cccc(C)c3)c(Cl)c(N)c2F)c1F [Compound 11] | 99 | 97 | 97 | 99 |  |  | 
13 | 143 to 144 | COc1c(Cl)ccc(-c2nc(C(=O)OCc3ccc(F)cc3)c(Cl)c(N)c2F)c1F [Compound 24] | 100 | 100 | 70 | 100 |  |  | 
14 | 142 to 143 | COc1c(Cl)ccc(-c2nc(C(=O)OCc3ccc4ccccc4c3)c(Cl)c(N)c2F)c1F [Compound 28] | 100 | 100 | 10 | 50 |  |  | 
15 | 107 to 108 | COc1c(Cl)ccc(-c2nc(C(=O)OCCc3ccc(Cl)cc3)c(Cl)c(N)c2F)c1F [Compound 22] | 100 | 90 | 0 | 40 |  |  | 

Source: patent publication US9169217B2, “Arylalkyl esters of 4-amino-6-(substituted phenyl)-picolinates and 6-amino-2-(substituted phenyl)-pyrimidinecarboxylates and their use as selective herbicides for crops” (Dow AgroSciences LLC, priority 2011, dated 2015)
